Measured values from publication PMC3961306, “Comparison of the Cancer Gene Targeting and Biochemical Selectivities of All Targeted Kinase Inhibitors Approved for Clinical Use” (PLoS ONE, 2014).

Legend:
Assay in all cases: Kinase profiling in a biochemical assay panel (mobility shift assays and ELISA), %-inhibition at 1 μM; selectivity entropy
[1] = target: panel of more than 300 wild-type and mutant kinases (313 kinase panel) (Homo sapiens, UniProt P06213)
[2] = target: panel of more than 300 wild-type and mutant kinases (313 kinase panel) (Homo sapiens, UniProt P05771)
[3] = target: T1, panel of more than 300 wild-type and mutant kinases (313 kinase panel) (Homo sapiens, UniProt O14757)
T1 sequence (O14757 1-476): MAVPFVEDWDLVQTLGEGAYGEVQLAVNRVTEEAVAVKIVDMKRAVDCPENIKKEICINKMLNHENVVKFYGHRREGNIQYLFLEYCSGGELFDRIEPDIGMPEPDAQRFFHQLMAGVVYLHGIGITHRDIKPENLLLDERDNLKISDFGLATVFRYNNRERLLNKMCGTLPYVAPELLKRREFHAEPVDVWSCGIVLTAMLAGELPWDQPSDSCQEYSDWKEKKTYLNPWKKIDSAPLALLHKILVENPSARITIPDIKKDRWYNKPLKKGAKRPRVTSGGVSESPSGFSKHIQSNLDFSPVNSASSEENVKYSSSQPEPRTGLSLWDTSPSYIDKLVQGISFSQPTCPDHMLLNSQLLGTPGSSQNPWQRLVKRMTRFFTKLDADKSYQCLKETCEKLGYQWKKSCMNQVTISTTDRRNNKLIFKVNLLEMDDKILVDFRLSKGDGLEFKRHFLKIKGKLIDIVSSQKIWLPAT

[4] = target: panel of more than 300 wild-type and mutant kinases (313 kinase panel) (Homo sapiens, UniProt P16234)
[5] = target: T2, panel of more than 300 wild-type and mutant kinases (313 kinase panel) (Homo sapiens, UniProt Q05513)
T2 sequence (Q05513 1-592): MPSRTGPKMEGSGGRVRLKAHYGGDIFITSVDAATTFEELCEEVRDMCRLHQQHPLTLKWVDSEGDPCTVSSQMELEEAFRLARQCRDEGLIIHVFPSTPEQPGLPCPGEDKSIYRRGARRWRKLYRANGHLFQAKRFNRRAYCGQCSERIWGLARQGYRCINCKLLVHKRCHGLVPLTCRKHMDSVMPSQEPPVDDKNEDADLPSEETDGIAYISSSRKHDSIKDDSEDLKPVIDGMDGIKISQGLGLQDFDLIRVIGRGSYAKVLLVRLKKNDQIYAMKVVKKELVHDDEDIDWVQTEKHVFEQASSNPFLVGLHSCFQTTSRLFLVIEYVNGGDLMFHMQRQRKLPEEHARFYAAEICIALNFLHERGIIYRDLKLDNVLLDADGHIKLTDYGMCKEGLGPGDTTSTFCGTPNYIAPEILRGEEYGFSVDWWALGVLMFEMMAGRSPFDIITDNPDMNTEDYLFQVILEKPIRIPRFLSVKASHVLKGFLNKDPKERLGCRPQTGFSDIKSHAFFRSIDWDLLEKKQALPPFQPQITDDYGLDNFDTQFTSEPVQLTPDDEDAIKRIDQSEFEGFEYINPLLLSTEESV

[6] = target: panel of more than 300 wild-type and mutant kinases (313 kinase panel) (Homo sapiens, UniProt P09769)
[7] = target: T3, panel of more than 300 wild-type and mutant kinases (313 kinase panel) (Homo sapiens, UniProt Q8TD19)
T3 sequence (Q8TD19 1-979): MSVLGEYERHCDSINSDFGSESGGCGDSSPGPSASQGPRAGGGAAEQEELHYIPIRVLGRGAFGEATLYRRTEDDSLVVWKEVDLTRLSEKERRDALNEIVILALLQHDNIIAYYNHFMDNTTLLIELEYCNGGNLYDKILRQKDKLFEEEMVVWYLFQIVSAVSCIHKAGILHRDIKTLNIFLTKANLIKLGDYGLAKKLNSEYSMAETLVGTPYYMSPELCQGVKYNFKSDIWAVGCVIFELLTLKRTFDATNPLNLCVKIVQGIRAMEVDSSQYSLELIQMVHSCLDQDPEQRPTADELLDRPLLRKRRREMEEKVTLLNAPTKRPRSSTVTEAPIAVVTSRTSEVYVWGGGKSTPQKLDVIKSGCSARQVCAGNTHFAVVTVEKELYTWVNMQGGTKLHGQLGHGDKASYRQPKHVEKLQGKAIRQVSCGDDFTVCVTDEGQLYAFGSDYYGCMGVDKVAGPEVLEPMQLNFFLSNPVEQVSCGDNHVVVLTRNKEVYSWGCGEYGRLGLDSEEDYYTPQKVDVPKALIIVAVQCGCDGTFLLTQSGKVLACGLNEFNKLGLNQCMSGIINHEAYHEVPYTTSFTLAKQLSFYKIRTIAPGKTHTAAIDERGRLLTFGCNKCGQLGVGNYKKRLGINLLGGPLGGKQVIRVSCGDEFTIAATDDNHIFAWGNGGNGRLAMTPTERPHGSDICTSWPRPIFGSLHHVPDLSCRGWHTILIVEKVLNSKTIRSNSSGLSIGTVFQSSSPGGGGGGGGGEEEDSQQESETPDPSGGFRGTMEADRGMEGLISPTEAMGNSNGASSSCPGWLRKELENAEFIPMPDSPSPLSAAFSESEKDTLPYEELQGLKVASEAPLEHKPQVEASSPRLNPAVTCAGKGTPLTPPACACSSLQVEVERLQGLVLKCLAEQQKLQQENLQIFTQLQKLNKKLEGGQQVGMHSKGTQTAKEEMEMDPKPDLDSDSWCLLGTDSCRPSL

Chain of panel of more than 300 wild-type and mutant kinases (313 kinase panel) (Homo sapiens, UniProt P06213) (P06213 28-1382, change not shown): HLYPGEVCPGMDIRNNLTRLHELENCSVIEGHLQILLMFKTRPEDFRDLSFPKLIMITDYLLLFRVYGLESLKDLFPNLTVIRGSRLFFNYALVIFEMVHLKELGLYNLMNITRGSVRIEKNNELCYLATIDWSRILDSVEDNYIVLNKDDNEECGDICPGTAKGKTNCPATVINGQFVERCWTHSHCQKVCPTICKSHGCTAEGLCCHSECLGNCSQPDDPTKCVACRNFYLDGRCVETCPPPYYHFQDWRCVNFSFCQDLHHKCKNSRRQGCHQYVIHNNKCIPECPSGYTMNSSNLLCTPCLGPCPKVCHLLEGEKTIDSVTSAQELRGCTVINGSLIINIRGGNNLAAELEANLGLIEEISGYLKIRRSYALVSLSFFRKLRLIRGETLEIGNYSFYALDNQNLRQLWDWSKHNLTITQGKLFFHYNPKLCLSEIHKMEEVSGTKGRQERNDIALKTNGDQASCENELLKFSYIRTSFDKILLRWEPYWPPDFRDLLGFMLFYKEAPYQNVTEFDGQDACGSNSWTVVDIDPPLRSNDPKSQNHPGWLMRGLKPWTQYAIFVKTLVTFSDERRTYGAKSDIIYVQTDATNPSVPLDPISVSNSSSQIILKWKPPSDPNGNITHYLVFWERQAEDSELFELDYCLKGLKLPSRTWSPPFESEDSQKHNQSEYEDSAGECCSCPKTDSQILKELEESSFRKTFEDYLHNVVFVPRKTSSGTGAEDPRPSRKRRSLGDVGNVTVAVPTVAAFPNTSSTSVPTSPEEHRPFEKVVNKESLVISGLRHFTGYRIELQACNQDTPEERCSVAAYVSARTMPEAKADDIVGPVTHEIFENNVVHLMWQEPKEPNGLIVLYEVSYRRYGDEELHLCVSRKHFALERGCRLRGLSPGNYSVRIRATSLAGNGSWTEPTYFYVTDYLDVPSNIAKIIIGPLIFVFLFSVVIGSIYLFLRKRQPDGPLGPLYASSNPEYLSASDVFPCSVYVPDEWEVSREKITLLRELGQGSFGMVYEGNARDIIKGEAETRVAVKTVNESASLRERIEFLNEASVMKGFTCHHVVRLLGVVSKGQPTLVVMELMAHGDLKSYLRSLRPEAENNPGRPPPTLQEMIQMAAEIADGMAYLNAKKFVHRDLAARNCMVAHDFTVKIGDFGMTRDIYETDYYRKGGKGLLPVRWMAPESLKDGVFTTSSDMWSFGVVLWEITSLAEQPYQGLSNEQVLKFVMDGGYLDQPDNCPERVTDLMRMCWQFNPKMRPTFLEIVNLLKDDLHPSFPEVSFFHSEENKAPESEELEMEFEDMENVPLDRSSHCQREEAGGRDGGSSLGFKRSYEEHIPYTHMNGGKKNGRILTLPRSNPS
Chain of panel of more than 300 wild-type and mutant kinases (313 kinase panel) (Homo sapiens, UniProt P16234) (P16234 24-1089, change not shown): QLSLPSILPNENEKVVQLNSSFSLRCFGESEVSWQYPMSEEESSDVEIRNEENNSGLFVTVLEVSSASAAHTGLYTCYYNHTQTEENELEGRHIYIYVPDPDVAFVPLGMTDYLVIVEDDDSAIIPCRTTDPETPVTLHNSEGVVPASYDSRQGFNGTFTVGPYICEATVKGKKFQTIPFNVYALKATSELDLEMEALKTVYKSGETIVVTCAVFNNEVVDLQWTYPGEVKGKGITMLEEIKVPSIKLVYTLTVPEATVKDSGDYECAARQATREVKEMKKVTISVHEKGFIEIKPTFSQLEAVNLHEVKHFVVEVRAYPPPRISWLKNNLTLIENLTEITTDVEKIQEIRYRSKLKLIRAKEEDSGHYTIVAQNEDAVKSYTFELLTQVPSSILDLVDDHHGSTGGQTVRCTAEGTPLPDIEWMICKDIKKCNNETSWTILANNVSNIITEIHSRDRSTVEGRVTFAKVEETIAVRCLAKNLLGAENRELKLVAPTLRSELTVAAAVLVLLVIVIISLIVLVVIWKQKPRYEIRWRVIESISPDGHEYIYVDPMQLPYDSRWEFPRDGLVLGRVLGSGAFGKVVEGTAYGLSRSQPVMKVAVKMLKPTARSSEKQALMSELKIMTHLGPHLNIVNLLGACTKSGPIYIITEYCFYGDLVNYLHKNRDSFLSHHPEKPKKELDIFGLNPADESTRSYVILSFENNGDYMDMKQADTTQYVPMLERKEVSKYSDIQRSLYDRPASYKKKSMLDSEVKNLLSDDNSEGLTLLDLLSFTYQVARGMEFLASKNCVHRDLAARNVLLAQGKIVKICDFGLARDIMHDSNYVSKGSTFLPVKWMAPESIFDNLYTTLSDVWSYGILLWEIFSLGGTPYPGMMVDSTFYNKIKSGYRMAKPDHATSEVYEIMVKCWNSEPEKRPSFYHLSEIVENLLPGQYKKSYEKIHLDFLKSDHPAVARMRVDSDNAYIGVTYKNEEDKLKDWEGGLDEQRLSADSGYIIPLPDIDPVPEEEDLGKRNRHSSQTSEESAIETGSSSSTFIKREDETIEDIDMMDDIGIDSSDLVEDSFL

| Compound | %-inhibition of INSR ([1]; kinase INSR, compound at 1 μM) [%] | %-inhibition of PKCβ1 ([2]; kinase PKCβ1, 1 μM) [%] | %-inhibition, CHK1 ([3]; kinase CHK1, 1 μM compound) [%] | %-inhibition of PDGFRα ([4]; kinase PDGFRα, 1 μM) [%] | %-inhibition of PKCζ ([5]; kinase PKCζ, 1 μM) [%] | %-inhibition of FGR ([6]; kinase FGR, compound at 1 μM) [%] | %-inhibition of NEK9 ([7]; 1 µM) [%] | %-inhibition of NEK9 ([7]; kinase NEK9, 1 μM) [%] | %-inhibition of INSR ([1]; 1 µM) [%] | %-inhibition of PKCβ1 ([2]; 1 µM) [%] | %-inhibition, CHK1 ([3]; 1 µM) [%] | %-inhibition of PDGFRα ([4]; 1 µM) [%] | %-inhibition of PKCζ ([5]; 1 µM) [%] | %-inhibition of FGR ([6]; 1 µM) [%] |
| --- | --- | --- | --- | --- | --- | --- | --- | --- | --- | --- | --- | --- | --- | --- |
| COc1cc(Nc2c(C#N)cnc3cc(OCCCN4CCN(C)CC4)c(OC)cc23)c(Cl)cc1Cl [bosutinib] | 65 | 3.68 | 83 | 77 | 14 | 92 | -4.25 |  |  |  |  |  |  |  |
| COc1cc2nccc(Oc3ccc(NC(=O)C4(C(=O)Nc5ccc(F)cc5)CC4)cc3)c2cc1OC [cabozantinib] | 35 | 1.48 | 4.42 | 100 | 4 | 94 |  | 1.26 |  |  |  |  |  |  |
| C[C@@H](Oc1cc(-c2cnn(C3CCNCC3)c2)cnc1N)c1c(Cl)ccc(F)c1Cl [crizotinib] |  | -3 | 10 | 49 | 9 | 70 |  | 57 |  |  |  |  |  |  |
| CC(C)(C)c1nc(-c2cccc(NS(=O)(=O)c3c(F)cccc3F)c2F)c(-c2ccnc(N)n2)s1 [dabrafenib] | 7.51 |  |  | 63 | 5 | 82 |  | 101 |  |  |  |  |  |  |
| C#Cc1cccc(Nc2ncnc3cc(OCCOC)c(OCCOC)cc23)c1 [erlotinib] |  |  |  |  |  |  | 7 |  | 4 | 6 | 14 | 52 | 7 | 29 |
| CO[C@H]1C[C@@H]2CC[C@@H](C)[C@@](O)(O2)C(=O)C(=O)N2CCCC[C@H]2C(=O)O[C@H]([C@H](C)C[C@@H]2CC[C@@H](OCCO)[C@H](OC)C2)CC(=O)[C@H](C)/C=C(\C)[C@@H](O)[C@@H](OC)C(=O)[C@H](C)C[C@H](C)/C=C/C=C/C=C/1C [everolimus] | -3.77 | 29 | 4 | 1.15 | 5 | 1 |  | -11 |  |  |  |  |  |  |
| O=S(=O)(c1cccc2cnccc12)N1CCCNCC1 [fasudil] | -11 | 16 | -11 | 16 | 7.57 | -4.71 |  | -3 |  |  |  |  |  |  |
| CS(=O)(=O)CCNCc1ccc(-c2ccc3ncnc(Nc4ccc(OCc5cccc(F)c5)c(Cl)c4)c3c2)o1 [lapatinib] | -1.26 | -6 | 12 |  | 0 | 10 |  |  |  |  |  | 40 |  |  |
| Cc1cn(-c2cc(NC(=O)c3ccc(C)c(Nc4nccc(-c5cccnc5)n4)c3)cc(C(F)(F)F)c2)cn1 [nilotinib] | -8 | 3.41 | -15 |  | 5.32 | 55 |  | -21 |  |  |  | 103 |  |  |
| Cc1ccc(Nc2nccc(N(C)c3ccc4c(C)n(C)nc4c3)n2)cc1S(N)(=O)=O [pazopanib] | 22 | -4.7 | -7 |  | -0.674 | 86 |  | 3.59 |  |  |  |  |  |  |
| Cc1ccc(C(=O)Nc2ccc(CN3CCN(C)CC3)c(C(F)(F)F)c2)cc1C#Cc1cnc2cccnn12 [ponatinib] | 43 | -5.61 | 3.23 | 103 | 14 | 101 |  | 17 |  |  |  |  |  |  |
| CNC(=O)c1cc(Oc2ccc(NC(=O)Nc3ccc(Cl)c(C(F)(F)F)c3)c(F)c2)ccn1 [regorafenib] | -2.79 | -7 | -3 | 102 | 5 | 56 |  | 2.52 |  |  |  |  |  |  |
| N#CC[C@H](C1CCCC1)n1cc(-c2ncnc3[nH]ccc23)cn1 [ruxolitinib] | 0.837 | 1.35 | 4.66 | 35 | -9 |  |  | 8 |  |  |  |  |  | 10 |
